In paper PMC10567728, “Targeted imaging of uPAR expression in vivo with cyclic AE105 variants” (Scientific Reports, 2023):
Several values for one entry are separate records, joined by “and”; a condition that tells them apart may be missing. Equal entries are not always repeated. Positions of bridges follow the written chain, without caps; N, C: chain ends. Non-standard residues stand in square brackets, D forms with d. Residues, ends and D or L forms follow the SMILES beside them. *: point of attachment. DOTA = O=C(O)CN1CCN(CC(=O)O)CCN(CC(=O)*)CCN(CC(=O)O)CC1; Cha = N[C@@H](CC1CCCCC1)C(=O)O

How the values were obtained:
[1] = molecular target: T1, uPAR•uPA interaction (Homo sapiens, UniProt Q03405); test: SPR competition assay of the uPAR•uPA interaction; type: binding; conditions: for IC50: competition of uPAR•uPA interaction, 2 nM uPAR, 20 °C, n = 3
T1 construct: Recombinant human uPAR^1–283 was expressed; made in house; host or cells: Drosophila melanogaster S2 cells
T1 sequence (Q03405 23-305): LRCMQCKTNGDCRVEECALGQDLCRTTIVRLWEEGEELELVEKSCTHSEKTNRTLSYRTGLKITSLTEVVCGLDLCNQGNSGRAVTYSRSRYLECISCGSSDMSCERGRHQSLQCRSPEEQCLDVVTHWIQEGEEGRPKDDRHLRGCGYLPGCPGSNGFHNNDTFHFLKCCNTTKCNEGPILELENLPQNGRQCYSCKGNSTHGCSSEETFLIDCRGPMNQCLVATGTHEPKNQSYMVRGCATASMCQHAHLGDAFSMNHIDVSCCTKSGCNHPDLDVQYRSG
Procedure: The IC50-values of antagonistic peptides on the uPAR•uPA interaction were determined with SPR using a Biacore T200™ or Biacore 3000™ instruments (Cytiva) essentially as described[4],[56],[77]. In brief, we immobilized high levels of pro-uPA^S356A (0.1 pmol pro-uPA/mm^2) on a CM5 sensor chip via amine coupling. The experiments were conducted by injecting 2 nM uPAR in presence of a threefold dilution series of a given antagonistic peptide for 300 s with a flow rate of 50 µL/min at 20 °C. The high immobilization levels result in binding conditions that are entirely controlled by mass transport limitations (MTL). Accordingly, the observed association rates (vobs) are directly proportional to the concentrations of binding-active uPAR in solution. To determine the IC50, we also measured a standard curve of uPAR binding (a twofold dilution series of 0.06 to 2 nM uPAR, linear due to MTL). The running buffer was 10 mM HEPES, 150 mM NaCl, 3 mM EDTA, and 0.05% (v/v) surfactant P-20 at pH 7.4, and the regeneration buffer was 0.1 M acetic acid in 0.5 M NaCl.

[2] = molecular target: T2, uPAR (Homo sapiens, UniProt Q03405); test: SPR real-time binding kinetics, peptides in solution and immobilised uPAR; conditions: for kon: read-out: kon
T2 construct: Recombinant human uPAR^1–283 was expressed; made in house; host or cells: Drosophila melanogaster S2 cells
T2 sequence (Q03405 23-305): as above
Procedure: The real-time binding kinetics of uPAR•peptide interactions were measured with SPR using a Biacore T200™(Cytiva); essentially as described in[56],[77]. In brief, uPAR was covalently immobilised on a CM5 sensor chip via amine coupling resulting in a surface density of 1157–1581 RU (~ 33–44 fmol/mm^2). The binding kinetics for the peptides to immobilised uPAR were measured using a single cycle protocol. In this setup, peptides were injected as five serial two-fold dilutions with a contact time of 200 s. After the last analyte injection, the dissociation time was set to 1000 s. The sensor chip was regenerated with two consecutive injections of 0.1 M acetic acid in 0.5 M NaCl. All experiments were conducted at 20 °C with a flow rate of 50 µL/min in 10 mM HEPES, 150 mM NaCl, 3 mM EDTA, and 0.05% (v/v) surfactant P-20 at pH 7.4. The kinetic rate constants (kon and koff) were determined by non-linear regression fitting of the curves to the simple bimolecular interaction model (BiacoreT200 Evaluation™ 3.0 software).

[3] = single cycle SPR, immobilised uPAR, 20 °C
[4] = single cycle SPR, immobilised uPAR, 20 °C, 1:1 model
[5] = [63Cu]-DOTA labelled peptides, single-cycle SPR

Compound `CC(C)C[C@@H]1NC(=O)[C@H](Cc2ccc(O)cc2)NC(=O)[C@H](NC(=O)[C@@H](CO)NC(=O)[C@H](Cc2ccccc2)NC(=O)[C@H](CC2CCCCC2)NC(=O)[C@@H](N)CC(=O)O)CSSC[C@@H](C(=O)O)NC(=O)[C@H](Cc2c[nH]c3ccccc23)NC1=O` [compound 3] (H-D[Cha]F[dS][dC]YLWC-OH; disulfide 5-9; N-terminus assumed) has an IC50 [1] of 6.5 ± 0.3 nM, a koff [2, 3] of 0.00365 ± 1e-05 s⁻¹ and a Kd [2, 4] of 3.32 nM. For the same compound, the kon [2, 3] was 1.098e+06 ± 4000 M⁻¹ s⁻¹.
In the case of `CC(C)C[C@H](NC(=O)[C@H](Cc1ccc(O)cc1)NC(=O)[C@@H](CO)NC(=O)[C@@H](CO)NC(=O)[C@H](Cc1ccccc1)NC(=O)[C@H](CC1CCCCC1)NC(=O)[C@H](CC(=O)O)NC(=O)CNC(=O)CNC(=O)[C@@H](CO)NC(=O)CNC(=O)[C@H](CCC(=O)O)NC(=O)[C@@H](N)CCC(=O)O)C(=O)N[C@@H](Cc1c[nH]c2ccccc12)C(=O)N[C@@H](CO)C(=O)O` [compound 5] (H-EEG[dS]GGD[Cha]F[dS][dS]YLWS-OH; N-terminus assumed), the “fold decrease in potency” value ([1]; compared to (4)) is reported as 7.8 fold, the koff [2, 3] is reported as 0.054 ± 0.0003 s⁻¹ and the kon [2, 3] is reported as 201000 ± 2000 M⁻¹ s⁻¹.
Compound `CC(C)C[C@@H]1NC(=O)[C@H](Cc2ccc(O)cc2)NC(=O)[C@H](NC(=O)[C@@H](CO)NC(=O)[C@H](Cc2ccccc2)NC(=O)[C@H](CC2CCCCC2)NC(=O)[C@H](CC(=O)O)NC(=O)CNC(=O)CNC(=O)[C@@H](CO)NC(=O)CNC(=O)[C@H](CCC(=O)O)NC(=O)[C@H](CCC(=O)O)NC(=O)CN2CCN(CC(=O)O)CCN(CC(=O)O)CCN(CC(=O)O)CC2)CSSC[C@@H](C(N)=O)NC(=O)[C@H](Cc2c[nH]c3ccccc23)NC1=O` [11b] ({DOTA}-EEG[dS]GGD[Cha]F[dS][dC]YLWC-NH2; disulfide 11-15) has an IC50 [1] of 7.7 ± 0.2 nM, a Kd [2, 5] of 22.6 nM and a koff [2, 5] of 0.0036 ± 1e-05 s⁻¹. The koff [2, 3] was 0.003562 ± 3e-06 s⁻¹, the Kd [2, 4] was 5 nM and 4.97 nM and the kon [2, 3] was 717000 ± 1000 M⁻¹ s⁻¹.
`CC(C)C[C@@H]1NC(=O)[C@@H]2CCCN2C(=O)[C@H](NC(=O)[C@@H](CO)NC(=O)[C@H](Cc2ccccc2)NC(=O)[C@H](CC2CCCCC2)NC(=O)[C@H](CC(=O)O)NC(=O)CNC(=O)CNC(=O)[C@@H](CO)NC(=O)CNC(=O)[C@H](CCC(=O)O)NC(=O)[C@@H](N)CCC(=O)O)CSSC[C@@H](C(=O)O)NC(=O)[C@H](Cc2c[nH]c3ccccc23)NC1=O` [compound 7] (H-EEG[dS]GGD[Cha]F[dS][dC]PLWC-OH; disulfide 11-15 (inferred); N-terminus assumed) was tested, and the KD [2, 4] was “N.B”.
For `CC(C)C[C@H](NC(=O)[C@H](Cc1ccc(O)cc1)NC(=O)[C@@H](CCCNC(=N)N)NC(=O)[C@@H](CO)NC(=O)[C@H](Cc1ccccc1)NC(=O)[C@H](CC1CCCCC1)NC(=O)[C@@H](N)CC(=O)O)C(=O)N[C@@H](Cc1c[nH]c2ccccc12)C(=O)N[C@@H](CO)C(N)=O` [compound 8], the IC50 [1] was 2.1 ± 0.1 nM, the koff [2, 3] was 0.000998 ± 1e-06 s⁻¹ and the Kd [2, 4] was 0.53 nM. The kon [2, 3] was 1.89e+06 ± 3000 M⁻¹ s⁻¹.
`CC(C)C[C@H](NC(=O)[C@H](Cc1ccc(O)cc1)NC(=O)[C@@H](CCCCN)NC(=O)[C@@H](CO)NC(=O)[C@H](Cc1ccccc1)NC(=O)[C@H](CC1CCCCC1)NC(=O)[C@@H](N)CC(=O)O)C(=O)N[C@@H](Cc1c[nH]c2ccccc12)C(=O)N[C@@H](CO)C(=O)O` [compound 2] (H-D[Cha]F[dS][dK]YLWS-OH; N-terminus assumed) was tested, and the IC50 [1] was 50.9 ± 2 nM, the koff [2, 3] was 0.0298 ± 0.0001 s⁻¹ and the Kd [2, 4] was 50.2 nM. For the same compound, the kon [2, 3] was 594000 ± 3000 M⁻¹ s⁻¹.
`CC(C)C[C@H](NC(=O)[C@H](Cc1ccc(O)cc1)NC(=O)[C@@H](CCCNC(=N)N)NC(=O)[C@@H](CO)NC(=O)[C@H](Cc1ccccc1)NC(=O)[C@H](CC1CCCCC1)NC(=O)[C@@H](N)CC(=O)O)C(=O)N[C@@H](Cc1c[nH]c2ccccc12)C(=O)N[C@@H](CO)C(=O)O` [compound 1, AE105] was tested, and the IC50 [1] was 8.8 ± 0.2 nM, the koff [2, 3] was 0.00396 ± 1e-05 s⁻¹ and the Kd [2, 4] was 2.52 nM. It also gave a kon [2, 3] of 1.568e+06 ± 5000 M⁻¹ s⁻¹.
